Experimental data: ChEMBL document CHEMBL3734749, “Naturally occurring FANCFHes1 complex inhibitors from Wrightia religiosa” (Medchemcomm, 2015)
Calls of active or inactive are those of the source. The calls are words filed in the database; no cut-off is given here.

Legend:
[1] = Inhibition of Cy3-GST-tagged human recombinant full length FANCF/Cy3-tagged rat Hes1 (3 to 281 amino acid residues) interaction expressed in Escherichia coli JM109 at 50 uM after 1 hrs by microplate reader assay
[2] = target: T1, Fanconi anemia group F protein/Transcription factor HES-1 (Homo sapiens) (UniProt Q9NPI8+Q14469); assay: (§1) Inhibition of Cy3-GST-tagged human recombinant full length FANCF/Cy3-tagged human full length HES1 (1 to 280 amino acid residues) interaction expressed in Escherichia coli JM109 after 1 hrs by microplate reader assay
[3] = target: T2, Fanconi anemia group F protein/Transcription factor HES-1 (Homo sapiens, UniProt Q14469+Q9NPI8); assay: as §1
T2 sequence (Q9NPI8 whole entry): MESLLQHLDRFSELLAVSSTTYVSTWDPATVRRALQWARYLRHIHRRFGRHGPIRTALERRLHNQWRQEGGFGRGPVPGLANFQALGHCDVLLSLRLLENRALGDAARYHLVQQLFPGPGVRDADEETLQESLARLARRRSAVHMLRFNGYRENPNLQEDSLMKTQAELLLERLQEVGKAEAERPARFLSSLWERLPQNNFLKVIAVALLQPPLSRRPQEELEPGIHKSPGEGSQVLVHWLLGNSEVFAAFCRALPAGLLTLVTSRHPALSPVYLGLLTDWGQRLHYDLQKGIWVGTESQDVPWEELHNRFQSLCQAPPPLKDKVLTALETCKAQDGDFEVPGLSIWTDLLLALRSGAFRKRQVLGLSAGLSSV
T2 sequence (Q14469 whole entry): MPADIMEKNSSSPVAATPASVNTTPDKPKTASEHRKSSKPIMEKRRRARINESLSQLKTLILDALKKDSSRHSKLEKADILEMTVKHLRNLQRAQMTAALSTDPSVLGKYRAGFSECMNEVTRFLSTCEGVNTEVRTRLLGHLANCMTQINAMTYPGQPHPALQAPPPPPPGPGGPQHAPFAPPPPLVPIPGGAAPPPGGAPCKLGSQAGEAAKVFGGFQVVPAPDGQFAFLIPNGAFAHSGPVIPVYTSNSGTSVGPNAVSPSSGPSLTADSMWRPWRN

[4] = target: T3, Transcription factor HES-1 (Homo sapiens, UniProt Q14469); assay: Inhibition of Cy3-tagged human recombinant full length HES1 (1 to 280 amino acid residues)/Cy3-GST-tagged human recombinant full length HES1 (1 to 280 amino acid residues) dimer formation expressed in Escherichia coli JM109 after 1 hr by microplate reader assay
T3 sequence (Q14469 whole entry): T2 sequence (Q14469 whole entry)

[5] = target: T1, Fanconi anemia group F protein/Transcription factor HES-1 (Homo sapiens); assay: Inhibition of Cy3-GST-tagged human recombinant full length FANCF/Cy3-tagged human full length HES1 (1 to 280 amino acid residues) interaction expressed in Escherichia coli JM109 at 10 uM after 1 hrs by microplate reader assay
[6] = Inhibition of GST-tagged recombinant mouse beta-catenin (128 to 683 amino acid residues)/human recombinant TCF4E (1 to 100 amino acid residues) complex formation expressed in Escherichia coli JM109 after 1 hrs by microplate reader assay
Bone marrow cell [7] = assay: Reduction of colony formation in Fanconi A deficient mouse bone marrow cells at 50 uM after 10 to 14 days; format: functional, cell-based
[8] = Reduction of colony formation in wild type mouse bone marrow cells at 50 uM after 10 to 14 days; format: functional, Bone marrow cell; design: scale not given: the % may be the effect or the level left
Bone marrow cell [9] = assay: Reduction of colony formation in Fanconi C deficient mouse bone marrow cells at 50 uM after 10 to 14 days; format: functional, cell-based

Row | Compound | inhibition [1] | inhibition [2] | IC50 [3] [µM] | IC50 [4] [µM] | inhibition [5] [%] | IC50 [6] [µM] | Activity (Bone marrow cell [7]) | Activity [8] [%] | Activity (Bone marrow cell [9])
1 | C[C@@H]1O[C@@H](OC[C@H]2O[C@@H](Oc3c(-c4ccc(O)c(O)c4)oc4cc(O)cc(O)c4c3=O)[C@H](O)[C@@H](O)[C@H]2O)[C@H](O)[C@H](O)[C@H]1O | Active | Dose-dependent effect | 35.8 | > 100 | 40 | > 100 | – | – | –
2 | C[C@@H]1O[C@@H](OC[C@H]2O[C@@H](Oc3c(-c4ccc(O[C@@H]5O[C@@H](C)[C@H](O)[C@@H](O)[C@H]5O)cc4)oc4cc(O)cc(O)c4c3=O)[C@H](O)[C@@H](O)[C@@H]2O)[C@H](O)[C@H](O)[C@H]1O | Active | Dose-dependent effect | – | – | – | – | – | – | –
3 | C[C@@H]1O[C@@H](OC[C@H]2O[C@@H](Oc3c(-c4ccc(O[C@@H]5O[C@@H](C)[C@H](O)[C@@H](O)[C@H]5O)c(O)c4)oc4cc(O)cc(O)c4c3=O)[C@H](O)[C@@H](O)[C@@H]2O)[C@H](O)[C@H](O)[C@H]1O | Active | Dose-dependent effect | 23.6 | 25.7 | 40 | > 100 | Active | 40 | inactive
